Source: patent US10406227B2, “Photoactivated molecules for light-induced modulation of the activity of electrically excitable cells and methods of using same” (University of Southern California, priority 2012, dated 2019)
“Also recorded” adds a separate entry of the source. Like-named read-outs stand apart in the source and are kept apart here.

Columns and labels:
RCS rats [1] = assay: Pupillary light reflex after intravitreal injection; assay type: in vivo, rat
Text: FIG. 16 depicts the papillary light response in RCS rats.
(§1) This finding was reproduced in 3 of 3 RCS rats injected with Rubpy-C17, and in 2 of 2 control (sham injection) RCS rats.

RCS rats [2] = assay: Extracellular recording from superior colliculus after intravitreal injection; assay type: in vivo, rat
Text: as §1

[3] = test system: primary cultured mouse chromaffin cells; assay: Imaging RubpyC17 in live cells (membrane luminescence); assay type: cell-based
Description: (§2) Cells were imaged at 1-3 days after plating. The glass-bottomed chambers with adherent cells were washed twice with PBS and then filled with standard extracellular solution consisting of 140 mM NaCl, 2.8 mM KCl, 10 mM HEPES, 1 mM MgCl2, 2 mM CaCl2, and 10 mM glucose, pH adjusted to 7.2-7.4 and osmolarity adjusted to 290-310 mOsm. The chamber was then mounted on an Olympus IX70 inverted microscope stage for imaging, using a Cascade 512B EMCCD camera, operated by Metamorph software. Initial imaging was done with cells in extracellular solution without RubpyC17, first under brightfield to evaluate cell health and morphology, then under widefield argon ion laser illumination at 488 nm (Coherent, Innova 90-5, Santa Clara, Calif.), to evaluate autofluorescence. Next, the extracellular solution was removed and replaced with extracellular solution containing the RubpyC17 compound (10 μM in ≤0.01% DMSO, final concentrations). Cell images were then acquired with illumination at 488 nm (collected with a long-pass red emission filter). For electrophysiological experiments, RubpyC17 compound was added to the extracellular solution (2-10 μM in ≤0.01% DMSO, final concentrations as indicated) and cells were incubated for 1.5-45 min, as indicated, then washed with extracellular solution without RubpyC17. Some chromaffin cells were also exposed continuously to 490-900 nM RubpyC17-containing extracellular solution.
(§3) Illustrated here are rat insulinoma INS cells (FIG. 1C, top), human embryonic kidney (HEK293T) cells (FIG. 1C, middle), and primary cultured mouse chromaffin cells (FIG. 1C, bottom). […] All cell types preserved morphology for at least 10 minutes. […] One embodiment of the possible light-induced electron transfer is depicted in FIG. 1D.

HEK293T cells = assay: as above; assay type: cell-based, human
Description: as §2, §3

[4] = test system: mouse adrenal chromaffin cells; assay: Perforated patch clamp action potential recording; assay type: cell-based
Description: Action potentials in chromaffin cells were monitored using perforated patch clamp electrophysiology in current-clamp mode, using an EPC10 amplifier and Pulsemaster data acquisition software (HEKA electronics). A coverslip containing mouse chromaffin cells was transferred to a recording chamber and perfused with extracellular solution. Extracellular solution consists of 140 mM NaCl, 2.8 mM KCl, 10 mM HEPES, 1 mM MgCl2, 2 mM CaCl2, 10 mM glucose, pH adjusted to 7.3, and osmolarity adjusted to 290-300 mOsm. Intracellular solution consisted of 145 mM KCl, 10 mM NaCl, 1 mM MgCl2, and 10 mM HEPES, pH adjusted to 7.3 and osmolarity adjusted to 290-300 mOsm. Perforation solution was prepared by adding 4.5 μl of 125 mg/ml stock of amphoterecin B (Sigma) in DMSO to 1.8 mls of intracellular solution, and homogenizing for 5-10 s. Perforation was achieved within 3-10 min following gigaseal formation. Series resistances were in the range of 8-22 Mohm. Light stimulation in the blue spectrum originated from a xenon lamp source with an irradiance value of 0.480 mE s^−1 m^−2 through a 470/40 nm bandpass excitation filter. The duration of illumination varied and is indicated by bars on figures.
The behavior of excitable cells (cells capable of firing action potentials) treated with RubpyC17 was next investigated. Perforated patch clamp recording was performed on mouse adrenal chromaffin cells pretreated with 450-900 nM RubpyC17 for 15-30 minutes before beginning electrophysiological recordings. […] A slow, gradual reversal, on the order of seconds after light illumination was terminated (FIG. 3A), was observed.

[5] = cited from earlier work
[6] = test system: cell lines and primary cells; assay: Cell health / tolerance on RubpyC17 exposure (stable gigaseal, viability); assay type: cell-based
Description: However, in several embodiments, other organic ligands coupled to other transition metals are also used, with reduced and/or non-existent adverse side effects. […] Excessive and prolonged whole cell incubation with RubpyC17 (e.g., >10 μM for >5 min) may result in cell toxicity, since a stable gigaseal cannot be stably maintained in those cells. At this time, the mechanism behind the adverse effects on cell health upon RubpyC17 overexposure is not yet fully known. Since perforation was not achieved when a small patch of membrane was exposed to a high dose of RupbyC17, it was hypothesized that when an entire cell is overexposed to RubpyC17, there may be sufficient random interactions between excess RubpyC17 complex and endogenous surface molecules (i.e., proteins, carbohydrates, sugars), triggering signals that lead to cell health deterioration. However, when used in its appropriate dose range (e.g., <about 10 μM for cell lines and <about 2 μM for primary cells, according to one embodiment), RubpyC17 is tolerated by cells and consistently confers light sensitivity.

[7] = 10 μM in bath, 488 nm excitation
[8] = 10 minutes after RubpyC17 removal

[Ru(bpy)2(bpy-C17)](PF6)2 [RubpyC17]
pupillary light reflex time (RCS rats [1]; injected eye): < 3 s
pupillary light reflex (RCS rats [1]; injected eye vs non-injected eye): vigorous pupillary light reflex was observed; also recorded: pupil constricts
RCS rats showing light-evoked superior colliculus activity (RCS rats [2]; intravitreal, final concentration 100 μM): 3 of 3
light-evoked electrical activity in superior colliculus (RCS rats [2]; intravitreal, final concentration 100 μM, 30 minutes after injection): elicited reproducible and stereotypical electrical activity
persistence of light-induced SC electrical responses after injection (RCS rats [2]; single eye injection): up to 3 days
time cell morphology preserved ([3]; 10 μM RubpyC17): at least 10 minutes
incorporation into plasma membrane (membrane-localized luminescence) [3, 7]: rapidly and stably incorporates into mammalian cell membranes
membrane luminescence after removal from bath solution [3, 8]: still observed
time cell morphology preserved (HEK293T cells; 10 μM RubpyC17): at least 10 minutes
incorporation into plasma membrane (membrane-localized luminescence) (HEK293T cells; [7]): rapidly and stably incorporates into mammalian cell membranes
membrane luminescence after removal from bath solution (HEK293T cells; [8]): still observed
effect of light on action potential firing ([4]; 900 nM RubpyC17 pretreatment, 5 mM ascorbate): triggered action potentials or increased the rate of action potential firing
action potential firing rate, single cell, ascorbate changed for ferricyanide ([4]; 2 μM RubpyC17 for 1.5 min): light-induced increase and then light-induced decrease
effect of light on action potential firing ([4]; 100 μM ferricyanide): decreased the rate of action potential firing
action potential waveform shape ([4]; before vs during light illumination): no change in the shape of action potential waveforms
effect of light on action potential firing ([4]; ferricyanide increased from 100 to 200 μM): further suppressed action potential firing
electron transfer rate ket ([5]; photo-activated RubpyC17 to oxidant ferricyanide, aqueous solution): ~6.5e+09 M⁻¹ s⁻¹
electron transfer rate ket ([5]; reductant ascorbate to photo-activated RubpyC17): ~2e+07 M⁻¹ s⁻¹
tolerated dose range ([6]; cell lines): < 10 µM
whole cell incubation concentration that may result in cell toxicity ([6]; for >5 min, stable gigaseal not maintained): > 10 µM
viability of chromaffin cells ([6]; incubations of ˜30 min): continued viability
tolerated dose range ([6]; primary cells): < 2 µM
